Measured values taken from US20260000642A1 (Tay Therapeutics Limited, priority 2022, published 2026).
Values joined by “and” are separate entries in the source; they are usually repeats but may differ in a detail not shown here. Identical values can stand only once. “Also recorded” adds a separate entry of the source. Like-named read-outs stand apart in the source and are kept apart here.

Legend:
[1] = Beagle dog PK study 1 (IV and PO, propylene glycol-based formulation); assay type: in vivo; details: for concentration at 0.25 h / concentration at 0.5 h / concentration at 1 h / concentration at 2 h / concentration at 4 h / concentration at 8 h / concentration at 24 h: beagle, dog, plasma, po, 5 mg/kg
Description: The purpose of this study was to examine the pharmacokinetics of Example 101 in beagle dogs. […] An oral PK study was also undertaken in Lewis rats—see Experimental Method C.
Body weight was recoded prior to dosing, and detailed clinical observations were made prior to dosing and throughout the study, as needed.
Subsequently, 17.320 mL Vitamin E TPGS was added, and the solution was vortexed and sonicated. Then, 51.960 mL water was added, and solution was then heated. […] Subsequently, 39.894 mL Vitamin E TPGS was added, and the solution was vortexed and sonicated. Then, 119.682 mL water was added, and the solution was heated.
Blood samples (˜0.3 mL) were collected according to a schedule (detailed below) by venipuncture of peripheral veins except for the dosing vein, and EDTA-K2 was used as anticoagulant. Within 30 minutes of collection, the samples were centrifuged at approximately 2000× g for 10 minutes at 4° C. to obtain blood plasma. The plasma samples were immediately divided into two aliquots (˜75 μL each), transferred to a cryogenic vial, and stored in a freezer at −75±15° C. prior to analysis.
Blood samples were collected at 0.25, 0.5, 1, 2, 4, 8, and 24 h following the initial dosing (0 h).
The experiments were conducted on a Shimadzu DGU-20A5R and AB API 5500+LC/MS/MS instrument with an Agilent Poroshell EC-C18 4 μm (50×2.1 mm) column. A gradient of 95% water (0.1% formic acid)/95% acetonitrile (0.1% formic acid) was used as the mobile phase. The sample injection volume was 1 μL, and the flow rate was 0.6 mL/min. The gathered data were used for pharmacokinetic calculations using T½, C0, AUClast, AUCinf, MRTinf, CI, Vss, and Number of Points for Regression as parameters.

[2] = system: Col1a1, TGF-b1, MCP-1, IL-1b, IL-6, IL-17, TNF-a, and Timp1; experiment: UUO model: kidney tissue biomarker mRNA by RT-PCR; assay type: in vivo, rat; details: UUO rats; 30 mg/kg
From the text: Serum for blood biochemistry analysis was collected into centrifuge tubes without coagulant four hours after final dosing. Blood plasma samples from group 3 was collected into tubes with K2EDTA four hours after final dosing. At the conclusion of the study (end of the 14-day period), animals were euthanized. Kidney tissue was collected four hours after final dosing. Ligated side kidney was divided into three copies 1/3 fix into 10% formalin for H&E analysis, 1/3 into RNA for PCR analysis of tissue biomarkers Col1a1, TGF-b1, MCP-1, IL-1b, IL-6, IL-17, TNF-a, and Timp1, and 1/3 for hydroxyproline assay analyzed by ELISA. RNA was extracted from tissue using the RNeasy mini kit (Qiagen). RNA concentration was measured using a NanoDrop One Spectrophotometer (ThermoFisher) and converted to cDNA using a High-Capacity RNA-to-cDNA kit (Invitrogen). RT-PCR was performed to measure levels of mRNA of different targets using TaqMan® Gene Expression Master Mix and TaqMan® probe/primer sets on a QuantStudio 6 Real-Time PCR System (ThermoFisher). Fold change in target gene expression was determined using the ΔΔCt method.

[3] = Pharmacokinetics of Example 101 in Lewis rats (oral, CIA study); assay type: in vivo, Lewis rat
Description: Blood samples were collected from animals in group 8 on Day 0, and blood samples were collected from group 9 on Day 20. Blood samples from group 8 and group 9 were collected at 0.25, 0.5, 1, 2, 4, 8, 10, 12, 13, and 24-hours following morning administration of their first dose of the compound. The second dose of the compound was administered after the 8-hour collection timepoint. All blood samples were collected at the eye socket and put into tubes containing EDTA-K2 as an anticoagulant and centrifuged at 4° C. at 4,000×g for 5 minutes. Plasma was transferred to a separate tube and stored at −75±15° C. for PK analysis. Pharmacokinetic analyses for Example 101 in Lewis rats were performed as described in Experimental Method B.

[4] = PK study 1, PO 5 mg/kg, Test Animal 1, read-out: Plasma concentration
[5] = PK study 1, PO 5 mg/kg, Test Animal 2, read-out: Plasma concentration
[6] = PK study 1, PO 5 mg/kg, Test Animal 3, read-out: Plasma concentration
[7] = PK study 1, PO 5 mg/kg, read-out: Average plasma concentration, Mean
[8] = day 0, 10 mg/kg, individual test subjects
[9] = day 20, 10 mg/kg, individual test subjects

CNC(=O)c1[nH]c(C(=O)NC2CCC2)cc1O[C@@H](C)c1ccccc1 [Example 101, N^5-cyclobutyl-N^2-methyl-3-(1-phenylethoxy)-1H-pyrrole-2,5-dicarboxamide]
AUClast/D, Mean ([1]; PK study 1, IV 1 mg/kg): 1883 (ng · h/mL)/(mg/kg)
AUC—% Extrap_obs, Mean ([1]; PK study 1, IV 1 mg/kg): 0.73%
C0, Mean ([1]; PK study 1, IV 1 mg/kg): 1512 ng/mL
Cl_obs, Mean ([1]; PK study 1, IV 1 mg/kg): 8.84 mL/min/kg
Vss_obs, Mean ([1]; PK study 1, IV 1 mg/kg): 0.733 L/kg
Vss_obs ([1]; PK study 1, IV 1 mg/kg, Test Animal 1): 0.734 L/kg
Vss_obs ([1]; PK study 1, IV 1 mg/kg, Test Animal 2): 0.747 L/kg
Vss_obs ([1]; PK study 1, IV 1 mg/kg, Test Animal 3): 0.719 L/kg
AUClast/D, Mean ([1]; PK study 1, PO 5 mg/kg): 830 (ng · h/mL)/(mg/kg)
AUC—% Extrap_obs, Mean ([1]; PK study 1, PO 5 mg/kg): 0.531%
F, Mean ([1]; PK study 1, PO 5 mg/kg): 44.0%
F ([1]; PK study 1, PO 5 mg/kg, Test Animal 1): 48.0%
AUClast/D ([1]; PK study 1, PO 5 mg/kg, Test Animal 3): 1000 (ng · h/mL)/(mg/kg)
clinical observations after intravenous administration ([1]; beagle dogs, PK study 1, group 1 (IV), 20% propylene glycol/20% Vitamin E TPGS/60% water, individual animals): Vomitus with solid food and soft feces; also recorded: twitching of hindlimbs; also recorded: Slight twitching and lacrimation
clinical observations after oral administration ([1]; beagle dogs, PK study 1, group 2 (PO), 20% propylene glycol/20% Vitamin E TPGS/60% water): Loose feces
time post-administration at which plasma concentrations began to steadily decrease ([1]; beagle dogs, PK study 1, oral administration): approximately 1 h
tolerability in dog PK studies ([1]; beagle dogs, oral and intravenous): well tolerated
concentration at 0.25 h [1, 4]: 173 ng/mL
concentration at 0.25 h [1, 5]: 775 ng/mL
concentration at 0.25 h [1, 6]: 309 ng/mL
concentration at 0.25 h [1, 7]: 419 ng/mL
concentration at 0.5 h [1, 4]: 1480 ng/mL
concentration at 0.5 h [1, 5]: 1550 ng/mL
concentration at 0.5 h [1, 6]: 1320 ng/mL
concentration at 0.5 h [1, 7]: 1450 ng/mL
concentration at 1 h [1, 4]: 2220 ng/mL
concentration at 1 h [1, 5]: 1180 ng/mL
concentration at 1 h [1, 6]: 2240 ng/mL
concentration at 1 h [1, 7]: 1880 ng/mL
concentration at 2 h [1, 4]: 1130 ng/mL
concentration at 2 h [1, 5]: 621 ng/mL
concentration at 2 h [1, 6]: 1310 ng/mL
concentration at 2 h [1, 7]: 1020 ng/mL
concentration at 4 h [1, 4]: 142 ng/mL
concentration at 4 h [1, 5]: 103 ng/mL
concentration at 4 h [1, 6]: 254 ng/mL
concentration at 4 h [1, 7]: 166 ng/mL
concentration at 8 h [1, 4]: 9.51 ng/mL
concentration at 8 h [1, 5]: 14.8 ng/mL
concentration at 8 h [1, 6]: 9.52 ng/mL
concentration at 8 h [1, 7]: 11.3 ng/mL
concentration at 24 h [1, 4]: 4.58 ng/mL
concentration at 24 h [1, 7]: 1.53 ng/mL
expression of IL-17 relative to UUO + vehicle [2]: limited effect
expression of TNF-a relative to UUO + vehicle [2]: limited effect
tissue RNA level of Col1a1 relative to UUO + vehicle [2]: reduced
tissue RNA level of IL-1b relative to UUO + vehicle [2]: reduced
tissue RNA level of IL-6 relative to UUO + vehicle [2]: reduced
tissue RNA level of MCP-1 relative to UUO + vehicle [2]: reduced
tissue RNA level of TGB-b1 relative to UUO + vehicle [2]: reduced
tissue RNA level of Timp1 relative to UUO + vehicle [2]: reduced
AUClast/D [3, 8]: 820 kg·ng·h/mL/mg and 720 kg·ng·h/mL/mg
Plasma concentration at 0.25 h [3, 8]: 375 ng/mL and 378 ng/mL and 754 ng/mL
Plasma concentration at 24 h [3, 8]: 14.3 ng/mL and 35.6 ng/mL and 122 ng/mL
T1/2 [3, 8]: 2.13 h and 2.54 h and 5.01 h
Tmax [3, 8]: 10.0 h (2×) and 2.00 h
AUCInf, Mean ([3]; day 0, 10 mg/kg, mean): 15371 ng·h/mL
AUClast, Mean ([3]; day 0, 10 mg/kg, mean): 15019 ng·h/mL
AUClast/D, Mean ([3]; day 0, 10 mg/kg, mean): 751 kg·ng·h/mL/mg
AUC—% Extrap_obs, Mean ([3]; day 0, 10 mg/kg, mean): 2.29%
MRTInf_obs, Mean ([3]; day 0, 10 mg/kg, mean): 8.61 h
AUC—% Extrap_obs [3, 9]: 0.700%
Cmax [3, 9]: 1660 ng/mL
Plasma concentration at 8 h [3, 9]: 103 ng/mL and 215 ng/mL and 188 ng/mL
Plasma concentration at 24 h [3, 9]: 16.7 ng/mL and 20.1 ng/mL and 38.1 ng/mL
AUClast/D, Mean ([3]; day 20, 10 mg/kg, mean): 528 kg·ng·h/mL/mg
AUC—% Extrap_obs, Mean ([3]; day 20, 10 mg/kg, mean): 1.11%
Cmax, Mean ([3]; day 20, 10 mg/kg, mean): 1707 ng/mL
MRTInf_obs, Mean ([3]; day 20, 10 mg/kg, mean): 6.66 h
